# Laboratory results from patent publication US20080299602A1, “Methods of Employing Vascular Leakage to Diagnose a Capillary Leak Disorder” (priority 2007, published 2008).
# System: omental vessels of the rat
# Test: Vascular leakage after intravenous bolus of marinobufagenin (FIG. 1), fluorescein-tagged albumin videomicroscopy
# Format: in vivo
# Conditions: bolus of 200 nM marinobufagenin injected intravenously, time increments vs control (Con)
# Protocol: FIG. 1 illustrates increasing vascular leakage at time increments from 5 seconds to 50 seconds with Con being the control group.
# A bolus of 200 nM marinobufagenin was injected intravenously.
# In the experimental procedure, single venules were visualized by way of a videomicroscopic technique, which permits viewing blood flow directly. The rats were injected with albumin that had been tagged with fluorescein dye. The distribution of the albumin in the omental vessels of the rat was then observed with a computer being employed to repeatedly measure the dye in the blood vessel and in the interstitium next to the blood vessel, as well as a remote site, which would serve as the control.
compound,measurement,value
C[C@]12CC[C@H](O)C[C@@]1(O)CC[C@@H]1[C@@H]2CC[C@]2(C)[C@@H](c3ccc(=O)oc3)C[C@H]3O[C@]132 [marinobufagenin],vascular leakage (dye monitored within the extravascular space),"progressive, large leakage"
